Counter-ions that a name gives are not always drawn.
Legend:
PI3Kα = molecular target: T1, PI3Kα (Homo sapiens, UniProt P42336); assay: Solid-phase lipid kinase assay of PI3Kα (p110α assay); type: biochemical; settings: recombinant truncated human p110α, 10 μM ATP
T1 construct: His6 (N); made in house; host or cells: S. frugiperda 9 (Sf9) insect cells
From the text: [Determination of IC50 Values of Compounds in Kinase Assay of PI3Kα]
LABORATORIES (Toronto, Canada). […] [γ^33P]ATP and unlabeled ATP were purchased from […] […] BIOTECH (Buckinghamshire, UK) and ROCHE DIAGNOSTICS (Mannheim, Germany), respectively. Scintillation cocktails and MicroScint PS™ were purchased from PACKARD (Meriden, Conn.). Maxisorp™ plates were purchased from NALGE NUNC INTERNATIONAL K.K. (Tokyo, Japan). All other chemicals not further specified were from WAKO PURE CHEMICALS (Osaka, Japan).
The plates were subsequently air-dried by incubation for at least 2 hours in a fume hood. The reaction was set up by mixing 25 μL/well of assay buffer 2×(100 mM MOPSO/NaOH, 0.2 M NaCl, pH 7.0, 8 mM MgCl2, 2 mg/mL BSA (fatty acid-free)), and 7.5 ng/well PI3Kα in the lipid pre-coated plate. 100× test compounds were added in 2% DMSO. The reaction was started by adding 20 μL/well of ATP mix (final 10 μM ATP; 0.05 μCi/well [γ^33P]ATP). After incubation at RT for 2 hours, the reaction was terminated by adding 50 μl/well stop solution (50 mM EDTA, pH 8.0). The plate was then washed twice with Tris-buffered saline (TBS, pH 7.4). MicroScint PS™ (PACKARD) scintillation mix was added at 100 μL/well, and radioactivity was counted using a TopCount™ (PACKARD) scintillation counter.
The inhibition percent at each concentration of compound was calculated, and IC50 values were determined from the inhibition of curve.

PI3Kβ = molecular target: T2, PI3Kβ (Homo sapiens, UniProt P42338); assay: Isozyme selectivity test: kinase assay of PI3Kβ (p110β assay); type: biochemical; settings: recombinant truncated p110β, 7.5 ng protein/well
T2 construct: His6 (N); made in house; host or cells: S. frugiperda 9 (Sf9) insect cells
T2 sequence (P42338 109-1070): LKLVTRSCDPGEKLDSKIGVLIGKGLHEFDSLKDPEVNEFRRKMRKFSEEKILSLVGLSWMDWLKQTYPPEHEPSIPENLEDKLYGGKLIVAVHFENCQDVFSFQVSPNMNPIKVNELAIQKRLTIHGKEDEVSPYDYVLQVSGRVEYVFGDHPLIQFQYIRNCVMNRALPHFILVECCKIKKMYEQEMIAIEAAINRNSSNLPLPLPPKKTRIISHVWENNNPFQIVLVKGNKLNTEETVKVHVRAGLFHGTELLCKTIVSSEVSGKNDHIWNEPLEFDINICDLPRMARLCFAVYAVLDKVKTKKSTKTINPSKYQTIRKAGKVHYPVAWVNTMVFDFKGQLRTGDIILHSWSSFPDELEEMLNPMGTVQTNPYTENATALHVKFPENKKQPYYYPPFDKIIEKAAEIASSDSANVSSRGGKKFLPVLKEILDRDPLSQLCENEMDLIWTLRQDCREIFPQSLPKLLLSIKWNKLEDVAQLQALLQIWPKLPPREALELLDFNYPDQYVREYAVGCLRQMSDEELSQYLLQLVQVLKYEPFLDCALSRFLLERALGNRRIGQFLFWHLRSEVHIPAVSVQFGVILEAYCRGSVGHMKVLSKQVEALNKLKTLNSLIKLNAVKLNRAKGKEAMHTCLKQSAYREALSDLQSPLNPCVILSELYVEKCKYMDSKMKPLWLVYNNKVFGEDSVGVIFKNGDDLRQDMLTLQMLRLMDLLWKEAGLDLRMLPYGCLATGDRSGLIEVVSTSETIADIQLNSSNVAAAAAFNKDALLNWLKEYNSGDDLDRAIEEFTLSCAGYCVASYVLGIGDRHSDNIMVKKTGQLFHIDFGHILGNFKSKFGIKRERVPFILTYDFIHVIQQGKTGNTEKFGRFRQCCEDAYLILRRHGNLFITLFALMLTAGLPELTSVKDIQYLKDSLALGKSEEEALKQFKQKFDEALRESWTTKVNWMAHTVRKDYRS
From the text: [Isozyme Selectivity Test in PI3K]
Determination of IC50 Values of Compounds in Kinase Assays of PI3Kβ and PI3Kγ

[1] = system: IGF-1 induced AKT phosphorylation in A549 cells; assay: IGF-1 induced AKT phosphorylation assay (A549 cell assay); type: cell-based; settings: Homo sapiens; A549 cells, 25 ng/ml IGF-1, phospho-AKT(Ser 473); read-out: average IC50 in the A549 cell assay
From the text: [Determination of IC50 Values of Compounds in Cell Based Assays of PI3K Activity] 96-well collagen treated clear bottom/black sided Costar plates were purchased from CORNING LIFE SCIENCES (Corning, N.Y.; at.#3904). Gibco RPMI medium (Cat.#11875), Biosource anti-phospho-AKT([…]) antibody (Cat.#44-621G) and recombinant IGF-1 (Cat.#PHG0074) were purchased from INVITROGEN (Carlsbad, Calif.). The secondary donkey anti-rabbit IgG horse radish peroxidase conjugate (Cat. #N[…]) and ECL chemiluminesence reagent (Cat.#RPN2209) were purchased from […] (Buckinghamshire, UK). Cell culture tested bovine serum albumin solution (35% in DPBS; Cat.#A7979) and all other chemicals were purchased from SIGMA (St. Louis, Mo.). The Wallac Victor2 1420 Multilabel HTS Counter was purchased from […] (Wellesley, Mass.) […] All wells (except no IGF-1 controls) were then treated with 25 ng/ml IGF-1 for 10 minutes at 37° C. in a 5% CO2 incubator. Following removal of the supernatants and washing with the wells with TBS (50 mM Tris pH 8.0 containing 138 mM NaCL and 27 mM KCl), 200 µL of 3.7% formaldehyde in TBS was added to each well, and the plate was incubated at 4° C. for 10 minutes. Supernatants were once again removed and replaced with 50 μL Methanol (-20° C.) and the plate incubated at 4° C. for 5 minutes. 200 μL of 0.1% BSA in TBS was then added to each well and the plate incubated at room temperature for 1⁄2 hour. Supernatants were removed and 50 μL of a solution comprising the primary anti-phospho-AKT([…]) antibody diluted 1:250 in TBS containing 0.1% BSA was added to each well (except control/background wells). The plate was then incubated for 11⁄2 hour at room temperature. Supernatants were removed, each well was washed 3 times with 200 μL TBS, and 100 μL of a solution containing the secondary donkey anti-rabbit IgG antibody HRP-conjugate diluted 1:100 in TBS-T (TBS containing 0.1% triton). Plates were then incubated for 1 hour at room temperature. After removing the secondary antibody, each well was washed 6 times with cold TBS-T, 100 μL of ECL was added to each well, and the plate was placed on an orbital shaker for 1 minute. The plates were then read on a Wallac Victor2 1420 Multilabel HTS Counter using the luminometry window (maximum light detection is measured at […]). IC50 values were determined from the inhibition curve.

T1 sequence (P42336 109-1068): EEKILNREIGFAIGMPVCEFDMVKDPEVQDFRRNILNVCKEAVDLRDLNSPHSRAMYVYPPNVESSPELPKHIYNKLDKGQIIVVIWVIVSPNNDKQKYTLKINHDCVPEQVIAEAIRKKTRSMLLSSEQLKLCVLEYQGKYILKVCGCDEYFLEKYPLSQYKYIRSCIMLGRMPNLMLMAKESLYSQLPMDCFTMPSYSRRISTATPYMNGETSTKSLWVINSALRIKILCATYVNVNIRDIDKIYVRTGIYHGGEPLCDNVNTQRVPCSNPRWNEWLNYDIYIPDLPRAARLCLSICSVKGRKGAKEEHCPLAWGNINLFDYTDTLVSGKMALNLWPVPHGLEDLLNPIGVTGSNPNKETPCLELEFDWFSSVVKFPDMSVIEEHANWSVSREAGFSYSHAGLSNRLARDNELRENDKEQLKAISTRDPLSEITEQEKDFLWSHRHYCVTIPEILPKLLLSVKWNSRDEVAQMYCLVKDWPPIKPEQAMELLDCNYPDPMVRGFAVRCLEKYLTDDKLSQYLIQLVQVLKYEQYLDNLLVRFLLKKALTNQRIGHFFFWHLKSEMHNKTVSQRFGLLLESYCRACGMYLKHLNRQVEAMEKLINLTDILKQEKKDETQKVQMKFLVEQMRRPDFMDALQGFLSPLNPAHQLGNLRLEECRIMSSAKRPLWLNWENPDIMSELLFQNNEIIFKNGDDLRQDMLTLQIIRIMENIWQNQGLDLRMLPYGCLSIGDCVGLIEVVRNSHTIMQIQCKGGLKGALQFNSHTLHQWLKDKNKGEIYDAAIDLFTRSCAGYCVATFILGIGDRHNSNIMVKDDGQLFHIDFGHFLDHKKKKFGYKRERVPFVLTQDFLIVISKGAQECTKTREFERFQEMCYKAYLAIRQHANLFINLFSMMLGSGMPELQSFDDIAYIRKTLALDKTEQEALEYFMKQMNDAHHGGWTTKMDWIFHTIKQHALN

| IC50 (PI3Kα) | IC50 (PI3Kβ) | IC50 [1] | SMILES |
| --- | --- | --- | --- |
| > 100 nM | > 100 nM | > 1000 nM | COc1c(OCCCN(C)C)ccc2c1N=C(NC(=O)c1ccc[n+]([O-])c1)N1CCN=C21 [Example 12, N-{8-[3-(dimethylamino)propoxy]-7-methoxy-2,3-dihydroimidazo[1,2-c]quinazolin-5-yl}nicotinamide 1-oxide] |
| 10 to 100 nM | 10 to 100 nM | > 1000 nM | COc1c(OCCCN2CCOCC2)ccc2c1N=C(NC(=O)c1ccc(CCN3CCCC3)nc1)N1CCN=C21 [Example 14, N-[7-methoxy-8-(3-morpholin-4-ylpropoxy)-2,3-dihydroimidazo[1,2-c]quinazolin-5-yl]-6-(2-pyrrolidin-1-ylethyl)nicotinamide] |
| 10 to 100 nM | 10 to 100 nM | > 1000 nM | COc1c(OCCCN2CCOCC2)ccc2c1N=C(NC(=O)c1ccc(NC3CCCC3)nc1)N1CCN=C21 [Example 15, 6-(cyclopentylamino)-N-[7-methoxy-8-(3-morpholin-4-ylpropoxy)-2,3-dihydroimidazo[1,2-c]quinazolin-5-yl]nicotinamide] |
| 10 to 100 nM | 10 to 100 nM | – | COc1c(OCCCN2CCOC[C@@H]2C)ccc2c1N=C(NC(=O)c1cccnc1)N1CCN=C21 [Example 17, N-{7-methoxy-8-[3-(3-methylmorpholin-4-yl)propoxy]-2,3-dihydroimidazo[1,2-c]quinazolin-5-yl}nicotinamide] |
| < 10 nM | < 10 nM | < 100 nM | COc1c(OCCC2CN(CC3CCC3)CCO2)ccc2c1N=C(NC(=O)c1cccnc1)N1CCN=C21 (centres unmarked) [Example 19, N-(8-{2-[4-(cyclobutylmethyl)morpholin-2-yl]ethoxy}-7-methoxy-2,3-dihydroimidazo[1,2-c]quinazolin-5-yl)nicotinamide] |
| 10 to 100 nM | 10 to 100 nM | – | COc1c(OCCCN2CCOCC2)ccc2c1N=C(NC(=O)c1cnc(N3CCOCC3)nc1)N1CCN=C21 [Example 49, N-[7-methoxy-8-(3-morpholin-4-ylpropoxy)-2,3-dihydroimidazo[1,2-c]quinazolin-5-yl]-2-morpholin-4-ylpyrimidine-5-carboxamide] |
| – | – | < 100 nM | CCN(CC)CCCOc1ccc2c(c1OC)N=C(NC(=O)c1cccnc1)N1CCN=C21 [Example 85, N-{8-[3-(diethylamino)propoxy]-7-methoxy-2,3-dihydroimidazo[1,2-c]quinazolin-5-yl}nicotinamide] |
| – | – | 100 to 1000 nM | COc1c(OCCN(C(C)C)C(C)C)ccc2c1N=C(NC(=O)c1cccnc1)N1CCN=C21 [Example 86, N-{8-[2-(diisopropylamino)ethoxy]-7-methoxy-2,3-dihydroimidazo[1,2-c]quinazolin-5-yl}nicotinamide] |
| – | – | 100 to 1000 nM | CCN(CC)CCOc1ccc2c(c1OC)N=C(NC(=O)c1cccnc1)N1CCN=C21 [Example 87, N-{8-[2-(diethylamino)ethoxy]-7-methoxy-2,3-dihydroimidazo[1,2-c]quinazolin-5-yl}nicotinamide] |
| – | – | 100 to 1000 nM | COc1c(OCCCN(C)C)ccc2c1N=C(NC(=O)c1cccnc1)N1CCN=C21 [Example 88, N-{8-[3-(dimethylamino)propoxy]-7-methoxy-2,3-dihydroimidazo[1,2-c]quinazolin-5-yl}nicotinamide] |
| – | – | 100 to 1000 nM | COc1c(OCCN(C)C)ccc2c1N=C(NC(=O)c1cccnc1)N1CCN=C21 [Example 89, N-{8-[2-(dimethylamino)ethoxy]-7-methoxy-2,3-dihydroimidazo[1,2-c]quinazolin-5-yl}nicotinamide] |
| – | – | < 100 nM | CNc1ncc(C(=O)NC2=Nc3c(ccc(OCCCN4CCOCC4)c3OC)C3=NCCN23)cn1 [Example 90, N-[7-methoxy-8-(3-morpholin-4-ylpropoxy)-2,3-dihydroimidazo[1,2-c]quinazolin-5-yl]-2-(methylamino)pyrimidine-5-carboxamide] |
| – | – | < 100 nM | COc1c(OCCCN2CCOCC2)ccc2c1N=C(NC(=O)c1cnc(SC)nc1)N1CCN=C21 [Example 91, N-[7-methoxy-8-(3-morpholin-4-ylpropoxy)-2,3-dihydroimidazo[1,2-c]quinazolin-5-yl]-2-(methylthio)pyrimidine-5-carboxamide] |
| – | – | > 1000 nM | COc1c(OCCCN)ccc2c1N=C(NC(=O)c1cccnc1)N1CCN=C21 [Example 92, N-[8-(3-aminopropoxy)-7-methoxy-2,3-dihydroimidazo[1,2-c]quinazolin-5-yl]nicotinamide trifluoroacetate] |
| – | – | < 100 nM | COc1c(OCCCN2CCOCC2)ccc2c1N=C(NC(=O)c1sc(C)nc1C)N1CCN=C21 [Example 94, N-[7-methoxy-8-(3-morpholin-4-ylpropoxy)-2,3-dihydroimidazo[1,2-c]quinazolin-5-yl]-2,4-dimethyl-1,3-thiazole-5-carboxamide] |
| – | – | < 100 nM | COc1ncc(C(=O)NC2=Nc3c(ccc(OCCCN4CCOCC4)c3OC)C3=NCCN23)cn1 [Example 95, 2-methoxy-N-[7-methoxy-8-(3-morpholin-4-ylpropoxy)-2,3-dihydroimidazo[1,2-c]quinazolin-5-yl]pyrimidine-5-carboxamide] |
| – | – | 100 to 1000 nM | COc1c(OCCCN2CCOCC2)ccc2c1N=C(NC(=O)c1ccoc1)N1CCN=C21 [Example 96, N-[7-methoxy-8-(3-morpholin-4-ylpropoxy)-2,3-dihydroimidazo[1,2-c]quinazolin-5-yl]-3-furamide] |
| – | – | 100 to 1000 nM | COc1c(OCCCN2CCOCC2)ccc2c1N=C(NC(=O)c1ccsc1)N1CCN=C21 [Example 97, N-[7-methoxy-8-(3-morpholin-4-ylpropoxy)-2,3-dihydroimidazo[1,2-c]quinazolin-5-yl]thiophene-3-carboxamide] |
| – | – | < 100 nM | COc1ccc(C(=O)NC2=Nc3c(ccc(OCCCN4CCOCC4)c3OC)C3=NCCN23)cn1 [Example 99, 6-methoxy-N-[7-methoxy-8-(3-morpholin-4-ylpropoxy)-2,3-dihydroimidazo[1,2-c]quinazolin-5-yl]nicotinamide] |
| – | – | 100 to 1000 nM | COc1cncc(C(=O)NC2=Nc3c(ccc(OCCCN4CCOCC4)c3OC)C3=NCCN23)c1 [Example 100, 5-methoxy-N-[7-methoxy-8-(3-morpholin-4-ylpropoxy)-2,3-dihydroimidazo[1,2-c]quinazolin-5-yl]nicotinamide] |
| – | – | < 100 nM | COc1c(OCCCN2CCOCC2)ccc2c1N=C(NC(=O)c1ccc(C)nc1)N1CCN=C21 [Example 101, N-[7-methoxy-8-(3-morpholin-4-ylpropoxy)-2,3-dihydroimidazo[1,2-c]quinazolin-5-yl]-6-methylnicotinamide] |
| – | – | < 100 nM | COc1c(OCCCN2CCOCC2)ccc2c1N=C(NC(=O)c1cccnc1)N1CCN=C21 [Example 103, N-[7-methoxy-8-(3-morpholin-4-ylpropoxy)-2,3-dihydroimidazo[1,2-c]quinazolin-5-yl]nicotinamide] |

From patent USRE46856E1, “Substituted 2,3-dihydroimidazo[1,2-c]quinazoline derivatives useful for treating hyper-proliferative disorders and diseases associated with angiogenesis” (Bayer Intellectual Property GmbH, priority 2006, dated 2018)
